Patent US20230374054A1, “METHOD FOR PURIFYING SUCRALOSE” (ANHUI JINHE INDUSTRIAL CO., LTD., priority 2020, published 2023)

Test: Bulk density determination (50 mL measuring cylinder, free-fall impact until compacted)
Format: physicochemical
Conditions: sample compacted in 50 mL measuring cylinder, free-fall impact at 5 cm height
Protocol: Determination method of bulk density: A sample of an example is added to a 50 mL measuring cylinder and continuously subjected to free-fall impact at a height of 5 cm until the sample is compacted, and then a mass of the sample is measured to obtain bulk density data.

SMILES	Bulk density [g/mL]
OC[C@H]1O[C@H](O[C@]2(CCl)O[C@H](CCl)[C@@H](O)[C@@H]2O)[C@H](O)[C@@H](O)[C@H]1Cl [Raw material, sucralose]	0.978
OC[C@H]1O[C@H](O[C@]2(CCl)O[C@H](CCl)[C@@H](O)[C@@H]2O)[C@H](O)[C@@H](O)[C@H]1Cl [Example 5, sucralose]	1.103
OC[C@H]1O[C@H](O[C@]2(CCl)O[C@H](CCl)[C@@H](O)[C@@H]2O)[C@H](O)[C@@H](O)[C@H]1Cl [Example 3, sucralose]	1.067
OC[C@H]1O[C@H](O[C@]2(CCl)O[C@H](CCl)[C@@H](O)[C@@H]2O)[C@H](O)[C@@H](O)[C@H]1Cl [Comparative Example 1, sucralose]	0.981
OC[C@H]1O[C@H](O[C@]2(CCl)O[C@H](CCl)[C@@H](O)[C@@H]2O)[C@H](O)[C@@H](O)[C@H]1Cl [Example 2, sucralose]	1.056
OC[C@H]1O[C@H](O[C@]2(CCl)O[C@H](CCl)[C@@H](O)[C@@H]2O)[C@H](O)[C@@H](O)[C@H]1Cl [Example 1, sucralose]	1.109
OC[C@H]1O[C@H](O[C@]2(CCl)O[C@H](CCl)[C@@H](O)[C@@H]2O)[C@H](O)[C@@H](O)[C@H]1Cl [Comparative Example 2, sucralose]	1.021
OC[C@H]1O[C@H](O[C@]2(CCl)O[C@H](CCl)[C@@H](O)[C@@H]2O)[C@H](O)[C@@H](O)[C@H]1Cl [Example 4, sucralose]	1.110
OC[C@H]1O[C@H](O[C@]2(CCl)O[C@H](CCl)[C@@H](O)[C@@H]2O)[C@H](O)[C@@H](O)[C@H]1Cl [Comparative Example 3, sucralose]	0.979

Test: Accelerated stability test (ICH guideline), purity of the stored sucralose product by HPLC
Format: physicochemical
Conditions: storage one month; 40° C. ± 2° C., 60% RH ± 5% RH
Protocol: A test and analysis method for the purity of sucralose involved in the present disclosure could refer to the Chinese National Standard “GB25531-2010 for Food Additive Sucralose”.
Analysis and determination conditions of the purity of sucralose: High-performance liquid chromatograph from Shimadzu, Japan: RID-10A differential refractive index detector, LC-10ADVP high-pressure pump, and CTO-10ASVP incubator; chromatographic column: Agilent XDB C18 column (250 mm×4.6 mm, 5 μm); mobile phase: methanol-0.125% dipotassium phosphate (DKP) aqueous solution (4:6); column temperature: 30° C.; and flow rate: 1.0 mL/min. Methanol (chromatographically pure), DKP (analytically pure), UPW, and sucralose (purity: 99.9%) are required, and a content is determined by an external standard method.
The products obtained according to Examples 1 to 6 and Comparative Examples 1 to 3 each were subjected to an accelerated stability test.

SMILES	Purity after storage, One month [%]
OC[C@H]1O[C@H](O[C@]2(CCl)O[C@H](CCl)[C@@H](O)[C@@H]2O)[C@H](O)[C@@H](O)[C@H]1Cl [Raw material, sucralose]	99.36
OC[C@H]1O[C@H](O[C@]2(CCl)O[C@H](CCl)[C@@H](O)[C@@H]2O)[C@H](O)[C@@H](O)[C@H]1Cl [Example 5, sucralose]	99.85
OC[C@H]1O[C@H](O[C@]2(CCl)O[C@H](CCl)[C@@H](O)[C@@H]2O)[C@H](O)[C@@H](O)[C@H]1Cl [Example 3, sucralose]	99.63
OC[C@H]1O[C@H](O[C@]2(CCl)O[C@H](CCl)[C@@H](O)[C@@H]2O)[C@H](O)[C@@H](O)[C@H]1Cl [Comparative Example 1, sucralose]	99.61
OC[C@H]1O[C@H](O[C@]2(CCl)O[C@H](CCl)[C@@H](O)[C@@H]2O)[C@H](O)[C@@H](O)[C@H]1Cl [Example 2, sucralose]	99.65
OC[C@H]1O[C@H](O[C@]2(CCl)O[C@H](CCl)[C@@H](O)[C@@H]2O)[C@H](O)[C@@H](O)[C@H]1Cl [Example 1, sucralose]	99.95
OC[C@H]1O[C@H](O[C@]2(CCl)O[C@H](CCl)[C@@H](O)[C@@H]2O)[C@H](O)[C@@H](O)[C@H]1Cl [Comparative Example 2, sucralose]	99.73
OC[C@H]1O[C@H](O[C@]2(CCl)O[C@H](CCl)[C@@H](O)[C@@H]2O)[C@H](O)[C@@H](O)[C@H]1Cl [Example 4, sucralose]	99.94
OC[C@H]1O[C@H](O[C@]2(CCl)O[C@H](CCl)[C@@H](O)[C@@H]2O)[C@H](O)[C@@H](O)[C@H]1Cl [Comparative Example 3, sucralose]	99.63
OC[C@H]1O[C@H](O[C@]2(CCl)O[C@H](CCl)[C@@H](O)[C@@H]2O)[C@H](O)[C@@H](O)[C@H]1Cl [Example 6, sucralose]	99.74

Same assay, conditions: storage six months; 40° C. ± 2° C., 60% RH ± 5% RH

SMILES	Purity after storage, Six months [%]
OC[C@H]1O[C@H](O[C@]2(CCl)O[C@H](CCl)[C@@H](O)[C@@H]2O)[C@H](O)[C@@H](O)[C@H]1Cl [Raw material, sucralose]	99.05
OC[C@H]1O[C@H](O[C@]2(CCl)O[C@H](CCl)[C@@H](O)[C@@H]2O)[C@H](O)[C@@H](O)[C@H]1Cl [Example 5, sucralose]	99.73
OC[C@H]1O[C@H](O[C@]2(CCl)O[C@H](CCl)[C@@H](O)[C@@H]2O)[C@H](O)[C@@H](O)[C@H]1Cl [Example 3, sucralose]	99.47
OC[C@H]1O[C@H](O[C@]2(CCl)O[C@H](CCl)[C@@H](O)[C@@H]2O)[C@H](O)[C@@H](O)[C@H]1Cl [Comparative Example 1, sucralose]	99.51
OC[C@H]1O[C@H](O[C@]2(CCl)O[C@H](CCl)[C@@H](O)[C@@H]2O)[C@H](O)[C@@H](O)[C@H]1Cl [Example 2, sucralose]	99.50
OC[C@H]1O[C@H](O[C@]2(CCl)O[C@H](CCl)[C@@H](O)[C@@H]2O)[C@H](O)[C@@H](O)[C@H]1Cl [Example 1, sucralose]	99.87
OC[C@H]1O[C@H](O[C@]2(CCl)O[C@H](CCl)[C@@H](O)[C@@H]2O)[C@H](O)[C@@H](O)[C@H]1Cl [Comparative Example 2, sucralose]	99.63
OC[C@H]1O[C@H](O[C@]2(CCl)O[C@H](CCl)[C@@H](O)[C@@H]2O)[C@H](O)[C@@H](O)[C@H]1Cl [Example 4, sucralose]	99.85
OC[C@H]1O[C@H](O[C@]2(CCl)O[C@H](CCl)[C@@H](O)[C@@H]2O)[C@H](O)[C@@H](O)[C@H]1Cl [Comparative Example 3, sucralose]	99.50
OC[C@H]1O[C@H](O[C@]2(CCl)O[C@H](CCl)[C@@H](O)[C@@H]2O)[C@H](O)[C@@H](O)[C@H]1Cl [Example 6, sucralose]	99.63

Same assay, conditions: storage three months; 40° C. ± 2° C., 60% RH ± 5% RH

SMILES	Purity after storage, Three months [%]
OC[C@H]1O[C@H](O[C@]2(CCl)O[C@H](CCl)[C@@H](O)[C@@H]2O)[C@H](O)[C@@H](O)[C@H]1Cl [Raw material, sucralose]	99.12
OC[C@H]1O[C@H](O[C@]2(CCl)O[C@H](CCl)[C@@H](O)[C@@H]2O)[C@H](O)[C@@H](O)[C@H]1Cl [Example 5, sucralose]	99.79
OC[C@H]1O[C@H](O[C@]2(CCl)O[C@H](CCl)[C@@H](O)[C@@H]2O)[C@H](O)[C@@H](O)[C@H]1Cl [Example 3, sucralose]	99.56
OC[C@H]1O[C@H](O[C@]2(CCl)O[C@H](CCl)[C@@H](O)[C@@H]2O)[C@H](O)[C@@H](O)[C@H]1Cl [Comparative Example 1, sucralose]	99.57
OC[C@H]1O[C@H](O[C@]2(CCl)O[C@H](CCl)[C@@H](O)[C@@H]2O)[C@H](O)[C@@H](O)[C@H]1Cl [Example 2, sucralose]	99.59
OC[C@H]1O[C@H](O[C@]2(CCl)O[C@H](CCl)[C@@H](O)[C@@H]2O)[C@H](O)[C@@H](O)[C@H]1Cl [Example 1, sucralose]	99.92
OC[C@H]1O[C@H](O[C@]2(CCl)O[C@H](CCl)[C@@H](O)[C@@H]2O)[C@H](O)[C@@H](O)[C@H]1Cl [Comparative Example 2, sucralose]	99.69
OC[C@H]1O[C@H](O[C@]2(CCl)O[C@H](CCl)[C@@H](O)[C@@H]2O)[C@H](O)[C@@H](O)[C@H]1Cl [Example 4, sucralose]	99.91
OC[C@H]1O[C@H](O[C@]2(CCl)O[C@H](CCl)[C@@H](O)[C@@H]2O)[C@H](O)[C@@H](O)[C@H]1Cl [Comparative Example 3, sucralose]	99.58
OC[C@H]1O[C@H](O[C@]2(CCl)O[C@H](CCl)[C@@H](O)[C@@H]2O)[C@H](O)[C@@H](O)[C@H]1Cl [Example 6, sucralose]	99.70

Same assay, conditions: storage twelve months; 40° C. ± 2° C., 60% RH ± 5% RH

SMILES	Purity after storage, Twelve months [%]
OC[C@H]1O[C@H](O[C@]2(CCl)O[C@H](CCl)[C@@H](O)[C@@H]2O)[C@H](O)[C@@H](O)[C@H]1Cl [Raw material, sucralose]	98.78
OC[C@H]1O[C@H](O[C@]2(CCl)O[C@H](CCl)[C@@H](O)[C@@H]2O)[C@H](O)[C@@H](O)[C@H]1Cl [Example 5, sucralose]	99.60
OC[C@H]1O[C@H](O[C@]2(CCl)O[C@H](CCl)[C@@H](O)[C@@H]2O)[C@H](O)[C@@H](O)[C@H]1Cl [Example 3, sucralose]	99.26
OC[C@H]1O[C@H](O[C@]2(CCl)O[C@H](CCl)[C@@H](O)[C@@H]2O)[C@H](O)[C@@H](O)[C@H]1Cl [Comparative Example 1, sucralose]	99.38
OC[C@H]1O[C@H](O[C@]2(CCl)O[C@H](CCl)[C@@H](O)[C@@H]2O)[C@H](O)[C@@H](O)[C@H]1Cl [Example 2, sucralose]	99.33
OC[C@H]1O[C@H](O[C@]2(CCl)O[C@H](CCl)[C@@H](O)[C@@H]2O)[C@H](O)[C@@H](O)[C@H]1Cl [Example 1, sucralose]	99.79
OC[C@H]1O[C@H](O[C@]2(CCl)O[C@H](CCl)[C@@H](O)[C@@H]2O)[C@H](O)[C@@H](O)[C@H]1Cl [Comparative Example 2, sucralose]	99.47
OC[C@H]1O[C@H](O[C@]2(CCl)O[C@H](CCl)[C@@H](O)[C@@H]2O)[C@H](O)[C@@H](O)[C@H]1Cl [Example 4, sucralose]	99.73
OC[C@H]1O[C@H](O[C@]2(CCl)O[C@H](CCl)[C@@H](O)[C@@H]2O)[C@H](O)[C@@H](O)[C@H]1Cl [Comparative Example 3, sucralose]	99.35
OC[C@H]1O[C@H](O[C@]2(CCl)O[C@H](CCl)[C@@H](O)[C@@H]2O)[C@H](O)[C@@H](O)[C@H]1Cl [Example 6, sucralose]	99.51

Same assay, conditions: storage twenty-four months; 40° C. ± 2° C., 60% RH ± 5% RH

SMILES	Purity after storage, Twenty-four months [%]
OC[C@H]1O[C@H](O[C@]2(CCl)O[C@H](CCl)[C@@H](O)[C@@H]2O)[C@H](O)[C@@H](O)[C@H]1Cl [Raw material, sucralose]	98.42
OC[C@H]1O[C@H](O[C@]2(CCl)O[C@H](CCl)[C@@H](O)[C@@H]2O)[C@H](O)[C@@H](O)[C@H]1Cl [Example 5, sucralose]	99.35
OC[C@H]1O[C@H](O[C@]2(CCl)O[C@H](CCl)[C@@H](O)[C@@H]2O)[C@H](O)[C@@H](O)[C@H]1Cl [Example 3, sucralose]	98.87
OC[C@H]1O[C@H](O[C@]2(CCl)O[C@H](CCl)[C@@H](O)[C@@H]2O)[C@H](O)[C@@H](O)[C@H]1Cl [Comparative Example 1, sucralose]	99.12
OC[C@H]1O[C@H](O[C@]2(CCl)O[C@H](CCl)[C@@H](O)[C@@H]2O)[C@H](O)[C@@H](O)[C@H]1Cl [Example 2, sucralose]	98.98
OC[C@H]1O[C@H](O[C@]2(CCl)O[C@H](CCl)[C@@H](O)[C@@H]2O)[C@H](O)[C@@H](O)[C@H]1Cl [Example 1, sucralose]	99.56
OC[C@H]1O[C@H](O[C@]2(CCl)O[C@H](CCl)[C@@H](O)[C@@H]2O)[C@H](O)[C@@H](O)[C@H]1Cl [Comparative Example 2, sucralose]	99.20
OC[C@H]1O[C@H](O[C@]2(CCl)O[C@H](CCl)[C@@H](O)[C@@H]2O)[C@H](O)[C@@H](O)[C@H]1Cl [Example 4, sucralose]	99.69
OC[C@H]1O[C@H](O[C@]2(CCl)O[C@H](CCl)[C@@H](O)[C@@H]2O)[C@H](O)[C@@H](O)[C@H]1Cl [Comparative Example 3, sucralose]	99.04
OC[C@H]1O[C@H](O[C@]2(CCl)O[C@H](CCl)[C@@H](O)[C@@H]2O)[C@H](O)[C@@H](O)[C@H]1Cl [Example 6, sucralose]	99.23
